Literature values in patent US20030082168A1, “Compositions and methods for facilitating weight loss” (priority 2001, published 2003).
Where two headings read alike, the source gives them in different places.

Key:
[1] = 2% CLA in diet; P=0.01
[2] = for Weight of control group above CLA group: after 6 weeks
[3] = test system: intercapsular brown adipose tissue (IBAT); conditions: caffeine alone

Compound | Subcutaneous fat, change vs sunflower oil [1] | Weight of control group above CLA group ([2]; high-fat diet, P<0.0001) | Energy intake, growth rate, adipose depot weight and carcass lipid ([2]; independent of diet composition) | Weight of control group above CLA group ([2]; low-fat diet, P<0.005) | Metabolic rate ([2]; mouse, in vivo) | Nighttime respiratory quotient ([2]; mouse, in vivo) | IBAT oxygen uptake [3]
Conjugated linoleic acid [CLA] | −6.8% | 5.7 g | significantly reduced | 3.2 g | significantly increased | decreased | –
Cn1c(=O)c2c(ncn2C)n(C)c1=O [Caffeine] | – | – | – | – | – | – | does not increase
